Source: US10064891B2, “Assembly of micelle aggregates of surfactant micelles and silver nanoparticles and use as antibacterial agent” (Otago Innovation Limited, priority 2013, dated 2018)

Columns and labels:
[1] = Determination of cmc / cmceff by electrical conductivity; assay type: physicochemical; settings: H2O, 25° C.; for cmc of pure surfactant (cmceff at 0 mM AgNO3): no AgNO3
Experimental: Electrical conductivity measurements (mS cm^−1) were performed on five SDS solutions over a range of concentrations, with each solution containing a different amount of added AgNO3. […] Standard deviations for each data point are <0.014 mS cm^−1 in all cases. Closed symbols represent the data points used for the linear regression analysis below the cmc, and the open symbols for the analysis above the cmc. For each sample, regardless of the electrolyte content, as the SDS concentration was varied, an inflection point in the electrical conductivity was observed, indicating the cmc. A linear regression analysis of the conductivity data of each of the five samples was performed above and below the inflection point. In all cases, no significant deviations from linearity were observed over the concentration ranges. A dashed line has been added to one data set to indicate the point of intersection of the two corresponding linear equations, thus indicating the cmc. The cmc of pure SDS in H2O in the absence of AgNO3 was determined to be 8.1 mM. The curve represents a critical ‘cmc boundary’ for the SDS/AgNO3 system, i.e. the cmceff of SDS at a given AgNO3 concentration between 0-10 mM.
Following the procedure detailed in Example 1, electrical conductivity measurements were performed on sodium dodecylbenzenesulfonate (SDBS), sodium lauryl ether sulfate (SLES) and ammonium lauryl sulfate (ALS) solutions containing different amounts of added AgNO3 in order to determine the cmceff of each surfactant. […] Linear regression analysis was performed as described in Example 1. The cmc of pure SDBS, SLES and ALS at 25° C. was determined to be 1.4, 3.1 and 6.7 mM, respectively.

[2] = absence of any salts; cited from earlier work

Compound | Cmceff ([1]; [AgNO3] 0.6 mM) [mM] | cmc of pure surfactant (cmceff at 0 mM AgNO3) [1] [mM] | cmc of pure SDS in water (known) [2] [mM] | Cmceff ([1]; [AgNO3] 2.9 mM) [mM]
CCCCCCCCCCCCOS(=O)(=O)O.N [ALS, ammonium lauryl sulfate] | 4.6 | 6.7 | – | –
CCCCCCCCCCCCOS(=O)(=O)[O-].[Na+] [SDS, sodium dodecyl sulfate] | – | 8.1 | 8.0 to 8.3 | –
sodium lauryl ether sulfate [SLES] | 2.1 | 3.1 | – | 1.9
